Data reported in ChEMBL document CHEMBL3045219, “Molecular modeling studies, synthesis and biological evaluation of derivatives of N-phenylbenzamide as Plasmodium falciparum dihydroorotate dehydrogenase (PfDHODH) inhibitors” (Med Chem Res, 2011).

target: T1, Dihydroorotate dehydrogenase (Plasmodium falciparum, UniProt Q54A96); experiment: Inhibition of Plasmodium falciparum HIs6-tagged DHODH expressed in Escherichia coli DH5alpha using L-dihydroorotate as substrate by DCIP-based spectrophotometric analysis
T1 sequence (Q54A96 whole entry): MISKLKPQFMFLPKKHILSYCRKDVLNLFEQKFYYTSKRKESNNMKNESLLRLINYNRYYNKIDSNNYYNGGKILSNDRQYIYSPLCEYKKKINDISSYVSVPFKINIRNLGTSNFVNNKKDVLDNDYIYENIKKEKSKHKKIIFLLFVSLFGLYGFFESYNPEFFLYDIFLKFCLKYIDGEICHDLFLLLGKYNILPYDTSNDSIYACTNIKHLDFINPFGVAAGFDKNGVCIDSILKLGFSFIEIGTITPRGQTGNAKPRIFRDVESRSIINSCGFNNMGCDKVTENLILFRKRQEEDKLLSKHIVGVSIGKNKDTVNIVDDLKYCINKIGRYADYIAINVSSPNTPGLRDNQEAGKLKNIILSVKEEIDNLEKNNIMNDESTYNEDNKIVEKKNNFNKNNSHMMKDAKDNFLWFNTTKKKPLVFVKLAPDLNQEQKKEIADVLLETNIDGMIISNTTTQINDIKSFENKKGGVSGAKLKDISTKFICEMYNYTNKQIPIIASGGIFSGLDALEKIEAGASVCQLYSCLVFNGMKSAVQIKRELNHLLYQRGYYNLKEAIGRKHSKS

IC50 [µM] | Compound
0.2 | O=C(Nc1ccccc1C(F)(F)F)Nc1cccc2ccccc12
871 | Cc1ccc(NC(=O)/C(C#N)=C(\O)C2CC2)cc1
708 | N#C/C(C(=O)Nc1ccc(C#N)cc1)=C(/O)C1CC1
1070 | N#C/C(C(=O)Nc1ccc(C(F)(F)F)cc1)=C(/O)C1CC1
0.1 | O=C(Nc1ccc(Cl)cc1Cl)c1ccc2ccccc2c1
0.151 | Cc1ccc(NC(=O)c2ccc3ccccc3c2)c(Cl)c1
0.251 | O=C(Nc1ccccc1F)c1ccc2ccccc2c1
0.1 | Cc1c(C(=O)Nc2cccc(Br)c2)cccc1[N+](=O)[O-]
0.151 | Cc1c(C(=O)Nc2ccc(F)c(F)c2)cccc1[N+](=O)[O-]
0.1 | Cc1c(C(=O)Nc2cccc3ccccc23)cccc1[N+](=O)[O-]
0.251 | Cc1c(C(=O)Nc2ccc(Cl)c(Cl)c2)cccc1[N+](=O)[O-]
0.302 | Cc1cccc(NC(=O)c2cccc([N+](=O)[O-])c2C)c1
0.251 | COc1ccccc1NC(=O)Nc1cccc2ccccc12
0.55 | O=C(Nc1ccc(Cl)cc1)Nc1cccc2cccnc12
537 | N#C/C(C(=O)Nc1ccc([N+](=O)[O-])cc1)=C(/O)C1CC1

Compound | IC50 [µM]
Cc1c(C(=O)Nc2cc(Cl)cc(Cl)c2)cccc1[N+](=O)[O-] | 0.151

tested on: Plasmodium falciparum; experiment: Antiplasmodial activity against Plasmodium falciparum assessed as inhibition of [3H]hypoxanthine incorporation; assay type: functional, organism-based

IC50 [µM] | Compound
5.7 | O=C(Nc1ccc(F)c(Cl)c1)c1ccccc1
> 10 | Cc1ccc(NC(=O)c2ccccc2)cc1
> 10 | O=C(Nc1ccc([N+](=O)[O-])cc1)c1ccccc1
> 10 | O=C(Nc1ccccc1Cl)c1ccccc1
> 10 | O=C(Nc1cccc([N+](=O)[O-])c1)c1ccccc1
8.7 | O=C(Nc1cccc(Cl)c1)c1ccccc1
> 10 | O=C(Nc1ccccc1[N+](=O)[O-])c1ccccc1
> 10 | O=C(Nc1ccc(Cl)cc1)c1ccccc1
> 10 | O=C(Nc1cccc(Cl)c1Cl)c1ccccc1
> 10 | O=C(Nc1ccc(Cl)cc1Cl)c1ccccc1
> 10 | Cc1cccc(NC(=O)c2ccccc2)c1
> 10 | COc1ccc(NC(=O)c2ccccc2)cc1Cl
> 10 | O=C(Nc1ccc(Br)cc1)c1ccccc1
0.017 | C[C@H]1[C@H](OC(=O)CCC(=O)O)O[C@@H]2O[C@@]3(C)CC[C@H]4[C@H](C)CC[C@@H]1[C@@]24OO3 [ARTESUNATE]
> 10 | Cc1ccccc1NC(=O)c1ccccc1 [N-O-TOLYLBENZAMIDE]
> 10 | O=C(Nc1ccccc1)c1ccccc1 [N-PHENYLBENZAMIDE]
